Experimental data from publication PMC10470053, “Diverse p120RasGAP interactions with doubly phosphorylated partners EphB4, p190RhoGAP, and Dok1” (The Journal of Biological Chemistry, 2023).
Substitutions are numbered along the chain they refer to. Where “and” joins values, the source holds several entries; their conditions need not be identical. Equal entries are not always repeated. Blank lines part the entries; values can stand above or below the molecule they belong to. Square brackets hold non-standard residues; d marks the D form. Peptide text beside a SMILES is read from it. pY = N[C@@H](Cc1ccc(OP(=O)(O)O)cc1)C(=O)O

Experiments:
[1] = molecular target: T1, RasGAP^232(mut) (R398E/K400E, C-SH2 mutant) (Homo sapiens, UniProt P20936, C236S/C261S/C372S/C402S/K400E/R398E); experiment: Isothermal titration calorimetry, C-SH2 mutant RasGAP^232(mut); assay type: binding
T1 construct: (residues 174–444, termed RasGAP^232); hexahistidine (TEV-cleavable) (N, cleaved yes); made in house; host or cells: E. coli Rosetta (DE3)
T1 sequence (P20936 174-444 C236S/C261S/C372S/R398E/K400E/C402S): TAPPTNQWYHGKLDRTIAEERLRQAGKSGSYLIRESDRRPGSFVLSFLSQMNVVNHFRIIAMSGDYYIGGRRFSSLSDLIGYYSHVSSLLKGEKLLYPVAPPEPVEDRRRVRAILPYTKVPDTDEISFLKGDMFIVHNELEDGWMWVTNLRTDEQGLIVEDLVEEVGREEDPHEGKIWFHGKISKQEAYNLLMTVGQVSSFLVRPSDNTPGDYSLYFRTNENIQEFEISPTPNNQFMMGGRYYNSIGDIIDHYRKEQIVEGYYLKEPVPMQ
Procedure: One possibility for the difference in binding affinity of EphB4 compared to the other dually phosphorylated peptides is that only a single SH2 domain engages EphB4 at any time. This is supported by the observation that the Kd of binding, 2 μM, is similar to other reported individual SH2 phosphotyrosine interactions (for examples see ([60])) and the evidence of only one inflection point in the doubly phosphorylated EphB4–binding isotherm (Figs. 2B and S3). To assess this hypothesis, we generated two RasGAP^232 mutants that disrupt the phosphotyrosine-binding sites of either the N- or C-SH2 domains and conducted further ITC experiments. […] For the ‘FLVR-unique” C-terminal SH2, we introduced a double mutation R398E/K400E, to abrogate phosphotyrosine binding guided by our previous work ([52]), termed RasGAP^232(mut) (Fig. 2D). We additionally generated a double mutant of both SH2 domains, RasGAP^2(mut)32(mut), and purified each of these proteins (Fig. S2, B–D). […] We then assessed phosphopeptide binding of the single mutant SH2 domains. […] This is similar to the Kd of 2 ± 0.7 μM observed for titration of this peptide into WT RasGAP^232.
To attempt to parse the specificity of RasGAP for the more N- or C-terminal EphB juxtamembrane phosphotyrosines pY590 and pY596, we assessed the affinity of RasGAP^232(mut) for shorter synthesized EphB4 peptides corresponding to either of the two phosphotyrosines (Fig. 1C). […] Alternatively, the C-terminal SH2 may contribute to a second weaker interaction in a tandem interaction. […] This low-affinity interaction represents a primarily single N-SH2-dominant interaction.
Purified RasGAP^232 protein and solubilized peptides were dialyzed overnight against buffer containing 20 mM Tris pH 8, 250 mM NaCl in Slide-A-Lyzer 3 ml 10 kDa molecular weight cut off cassettes (Spectra-Por) and Micro Float-A-Lyzer 0.1 to 0.2 ml, 0.1 to […] molecular weight cut off devices (Spectra-Por), respectively. Protein and peptide concentrations were determined by A280 measured on a Nanodrop Lite (Thermo Fisher Scientific) instrument using extinction coefficients of 45,840 M^−1 cm^−1 for RasGAP^232 (and mutants), 917 M^−1 cm^−1 for the doubly phosphorylated EphB4 peptide, and 458.5 M^−1 cm^−1 for the singly phosphorylated EphB4 peptides as determined by ([74]). Dok1 peptide concentration was confirmed using Amino Acid Analysis performed at UC Davis Molecular Structure Facility. Samples were centrifuged for 10 min at 4 °C and degassed for 7 min using a Degassing Station (TA Instruments). ITC experiments were performed on a Nano ITC (TA Instruments) by loading protein into the 190 μl sample cell and titrating 20 times with 2.5 μl peptide in the titration syringe. Concentrations for sample cell and syringe for each trial are included in Table S1. The data were analyzed in NanoAnalyze software (TA Instrument) using blank (constant) and independent models (https://www.tainstruments.com/itcrun-dscrun-nanoanalyze-software/).

[2] = molecular target: T2, RasGAP^232(mut) (RasGAP^232 with R398E/K400E in the C-SH2 domain) (human, UniProt P20936 174-444, R398E | K400E | C236 | C261 | C372 | C402); experiment: ITC; protein in the 190 ul sample cell, titrated 20 times with 2.5 ul peptide from the syringe; 20 mM Tris pH 8, 250 mM NaCl; Nano ITC (TA Instruments); independent binding model; conditions: both partners purified
T2 construct: p120RasGAP (RASA1), human, UniProt P20936, residues 174-444, mutant of RasGAP^232 in the C-SH2 domain; also called C-SH2 mutant; source: E. coli Rosetta (DE3), purified (same protocol as the WT: Ni-NTA, TEV cleavage, anion exchange, SEC)
T2 sequence (looked up): T1 sequence (P20936 174-444 C236S/C261S/C372S/R398E/K400E/C402S)

[3] = molecular target: T3, RasGAP^232 (p120RasGAP N-SH2, SH3 and C-SH2 domains, residues 174-444) (human, UniProt P20936 174-444, C236 | C261 | C372 | C402); experiment: as above; conditions: both partners purified
T3 construct: p120RasGAP (RASA1), human, UniProt P20936, residues 174-444 (N-SH2, SH3, C-SH2), with four cysteine to serine mutations; also called WT RasGAP^232; apo RasGAP^232; source: E. coli Rosetta (DE3), purified (Ni-NTA, TEV cleavage, anion exchange, SEC)
T3 sequence (looked up): T1 sequence (P20936 174-444 C236S/C261S/C372S/R398E/K400E/C402S) with E225R, E227K

[4] = molecular target: T4, RasGAP^232(mut) (RasGAP^232 with R398E/K400E in the C-SH2 domain) (human, UniProt P20936 174-444, C236S | C261S | C372S | C402S | R398E | K400E); experiment: ITC; RasGAP^232 protein (WT or mutant) in the 190 µl sample cell, peptide in the syringe, 20 injections of 2.5 µl; 20 mM Tris pH 8, 250 mM NaCl; Nano ITC (TA Instruments); blank (constant) and independent models; values of single trials, averages and stdev; conditions: both partners purified
T4 construct: p120RasGAP, human, UniProt P20936, residues 174-444; Made by site-directed mutagenesis of RasGAP^232, which holds the four cysteine to serine mutations; also called C-SH2 mutant; source: E. coli Rosetta (DE3), purified (same protocol as the WT counterpart); not shown: His6, N-terminal, cleaved
T4 sequence (looked up): T1 sequence (P20936 174-444 C236S/C261S/C372S/R398E/K400E/C402S)

[5] = ITC, average of trials (Table S1)

Molecule: CC(=O)N[C@@H](CC(=O)O)C(=O)N1CCC[C@H]1C(=O)N[C@@H](Cc1ccccc1)C(=O)N[C@H](C(=O)N[C@@H](Cc1ccc(OP(=O)(O)O)cc1)C(=O)N[C@@H](CCC(=O)O)C(=O)N[C@@H](CC(=O)O)C(=O)N1CCC[C@H]1C(=O)N[C@@H](CC(N)=O)C(=O)N[C@@H](CCC(=O)O)C(N)=O)[C@@H](C)O [pY596 EphB4] (Ac-DPFT[pY]EDPNE-NH2)
weaker binding than the doubly phosphorylated EphB4 peptide ([1]; ITC Kd, singly versus doubly phosphorylated EphB4 peptide): about 10 fold
n ([1]; ITC stoichiometry, mean ± SD of trials): 0.6 ± 0.2
-T∆S [1, 5]: -1.2 kcal/mol
Ka [1, 5]: 0.05 µM⁻¹
∆G [1, 5]: -6.38 kcal/mol
ΔH ([1]; ITC, mean ± SD of trials): -5.26 kcal/mol and -5.26 ± 0.96 kcal/mol
ΔS ([1]; ITC, mean ± SD of trials): 15 J/mol∗K and 15 ± 13 J/mol∗K
-T∆S ([1]; trial 2, ITC): -1.58 kcal/mol
∆G ([1]; trial 2, ITC): -6.36 kcal/mol
∆H ([1]; trial 2, ITC): -4.8 kcal/mol
∆S ([1]; trial 2, ITC): 22.0 J/mol*K
-T∆S ([1]; trial 3, ITC): -0.048 kcal/mol
Ka ([1]; trial 3, ITC): 0.05 µM⁻¹
∆G ([1]; trial 3, ITC): -6.48 kcal/mol
∆H ([1]; trial 3, ITC): -6.43 kcal/mol
∆S ([1]; trial 3, ITC): 0.8 J/mol*K

B2: doubly phosphorylated Dok1 peptide (residues 291-322, pY296 and pY315) (peptide)
peptide: Ac-SPPAL[pY]AEPLDSLRIAPCPSQDSL[pY]SDPLDST-NH2
SMILES: CC[C@H](C)[C@H](NC(=O)[C@H](CCCNC(=N)N)NC(=O)[C@H](CC(C)C)NC(=O)[C@H](CO)NC(=O)[C@H](CC(=O)O)NC(=O)[C@H](CC(C)C)NC(=O)[C@@H]1CCCN1C(=O)[C@H](CCC(=O)O)NC(=O)[C@H](C)NC(=O)[C@H](Cc1ccc(OP(=O)(O)O)cc1)NC(=O)[C@H](CC(C)C)NC(=O)[C@H](C)NC(=O)[C@@H]1CCCN1C(=O)[C@@H]1CCCN1C(=O)[C@H](CO)NC(C)=O)C(=O)N[C@@H](C)C(=O)N1CCC[C@H]1C(=O)N[C@@H](CS)C(=O)N1CCC[C@H]1C(=O)N[C@@H](CO)C(=O)N[C@@H](CCC(N)=O)C(=O)N[C@@H](CC(=O)O)C(=O)N[C@@H](CO)C(=O)N[C@@H](CC(C)C)C(=O)N[C@@H](Cc1ccc(OP(=O)(O)O)cc1)C(=O)N[C@@H](CO)C(=O)N[C@@H](CC(=O)O)C(=O)N1CCC[C@H]1C(=O)N[C@@H](CC(C)C)C(=O)N[C@@H](CC(=O)O)C(=O)N[C@@H](CO)C(=O)N[C@H](C(N)=O)[C@@H](C)O
notes: Dok1, UniProt Q99704, residues 291-322; also called pYpY Dok1; source: synthetic peptide, bought: GenScript
Kd [3]: 0.03 ± 0.02 µM
dH [3]: -18.6 ± 0.717 kcal/mol
stoichiometry N [3]: 0.8 ± 0.1

B4: singly phosphorylated EphB4 peptide pY590 (peptide)
peptide: Ac-GTKV[pY]IDPFT-NH2
SMILES: CC[C@H](C)[C@H](NC(=O)[C@H](Cc1ccc(OP(=O)(O)O)cc1)NC(=O)[C@@H](NC(=O)[C@H](CCCCN)NC(=O)[C@@H](NC(=O)CNC(C)=O)[C@@H](C)O)C(C)C)C(=O)N[C@@H](CC(=O)O)C(=O)N1CCC[C@H]1C(=O)N[C@@H](Cc1ccccc1)C(=O)N[C@H](C(N)=O)[C@@H](C)O
notes: EphB4, UniProt P54760, residues 586-595; also called pY590 EphB4; source: synthetic peptide, bought: GenScript
Kd [4]: 24.2 µM and 14.6 µM and 9.7 µM
stoichiometry N [4]: 0.7 and 0.8

B5: singly phosphorylated EphB4 peptide pY590 (residues 586-595) (peptide)
peptide: Ac-GTKV[pY]IDPFT-NH2
SMILES: CC[C@H](C)[C@H](NC(=O)[C@H](Cc1ccc(OP(=O)(O)O)cc1)NC(=O)[C@@H](NC(=O)[C@H](CCCCN)NC(=O)[C@@H](NC(=O)CNC(C)=O)[C@@H](C)O)C(C)C)C(=O)N[C@@H](CC(=O)O)C(=O)N1CCC[C@H]1C(=O)N[C@@H](Cc1ccccc1)C(=O)N[C@H](C(N)=O)[C@@H](C)O
notes: EphB4 juxtamembrane region, UniProt P54760, residues 586-595; also called pY590 EphB4; source: synthetic peptide, bought: GenScript
Kd [2]: 16 ± 7 µM
dH [2]: -3.7 kcal/mol
stoichiometry N [2]: 0.8 ± 0.1

The next lines start with the values.

Kd [2]: 21 ± 3 µM
dH [2]: -5.26 ± 0.956 kcal/mol
stoichiometry N [2]: 0.6 ± 0.2
B1: singly phosphorylated EphB4 peptide pY596 (peptide)
peptide: Ac-DPFT[pY]EDPNE-NH2
SMILES: CC(=O)N[C@@H](CC(=O)O)C(=O)N1CCC[C@H]1C(=O)N[C@@H](Cc1ccccc1)C(=O)N[C@H](C(=O)N[C@@H](Cc1ccc(OP(=O)(O)O)cc1)C(=O)N[C@@H](CCC(=O)O)C(=O)N[C@@H](CC(=O)O)C(=O)N1CCC[C@H]1C(=O)N[C@@H](CC(N)=O)C(=O)N[C@@H](CCC(=O)O)C(N)=O)[C@@H](C)O
notes: EphB4 juxtamembrane region, UniProt P54760; also called pY596 EphB4; source: synthetic peptide, bought: GenScript

Ka [4]: 40000 M⁻¹ and 50000 M⁻¹
Kd [4]: 24 µM and 22 µM and 18 µM
stoichiometry N [4]: 0.7 and 0.8 and 0.4
B3: singly phosphorylated EphB4 peptide pY596 (peptide)
peptide: Ac-DPFT[pY]EDPNE-NH2
SMILES: CC(=O)N[C@@H](CC(=O)O)C(=O)N1CCC[C@H]1C(=O)N[C@@H](Cc1ccccc1)C(=O)N[C@H](C(=O)N[C@@H](Cc1ccc(OP(=O)(O)O)cc1)C(=O)N[C@@H](CCC(=O)O)C(=O)N[C@@H](CC(=O)O)C(=O)N1CCC[C@H]1C(=O)N[C@@H](CC(N)=O)C(=O)N[C@@H](CCC(=O)O)C(N)=O)[C@@H](C)O
notes: EphB4, UniProt P54760; also called pY596 EphB4; source: synthetic peptide, bought: GenScript
